# What was measured:
# Verticillium dahliae = assay: Plate tests: Verticillium counts in treated greenhouse soil; format: cell-based; conditions: 20 gal./acre metam
# Procedure: Seven days after treatment, one soil sample per replicate was taken. V. dahliae control efficacy was assessed according to the methods below. Soil mixture was dried two weeks under greenhouse conditions. The quantity of V. dahliae in the soil was/will be assessed by dry soil plating on semi-selective medium. Dry soil samples were crushed and sieved through a #20 mesh. A small portion of each sample was incubated on six NP-10 semi-selective plates with a 6-stage Impactor (Anderson Samplers Inc., Atlanta, Ga.), using stages 2 and 3. Semi-selective NP-10 medium was prepared according to Kabir et al. (2004) and incubated at 24° C. in the dark for four weeks after spreading 0.5 g of soil. After incubation, the remaining soil was be gently washed off the plates and the number of V. dahliae microsclerotia colonies were counted on each plate under a microscope. The number of microsclerotia colonies equals the quantity of V. dahliae in soil and were extrapolated to 1 g of soil.
# Plate tests were performed on selected samples to determine the Verticillium counts in treated soil through Aug. 17, 2017. Plate tests were performed as described previously. The untreated control comparative sample 1 averaged 32.5 ms per gram of soil. For reasons not known, the water check comparative sample 2, with no active ingredients added, contained only 11.5 ms per gram of soil. […]
# soilborne fungi = assay: Visual observation of general fungal growth on the plates (jar test); format: cell-based; conditions: observed visually on the plates
# From the text: The general impact of LSS on fungal growth was also observed visually on the plates.
# Verticillium = assay: Jar test 2016: Verticillium microsclerotia colonies in treated soil, dry soil plating on NP-10; format: cell-based, Verticillium dahliae; conditions: Metam 40 gal/acre (190 kg active/ha); 2016
# Procedure: These investigations were performed under laboratory conditions in an initial jar test. We also investigated the pathogen control efficacy of LSS treatments, at 30 gal/acre (90 pounds/acre or 101 Kg/ha of calcium polysulfide) and at 90 gal/acre (276 pounds/acre or 310 Kg/ha of calcium polysulfide), and combined Metam/LSS treatments using Sectagon® brand metam at 20 gal/acre Metam (84 pounds/acre or 94 Kg/ha of metam sodium) with 40 gal/acre LSS (122 pounds/acre or 138 Kg/ha of calcium polysulfide); and at 30 gal/acre Metam (126 pounds/acre or […] of metam sodium) with 20 gal/acre LSS (60 pounds/acre or 67 kg/ha of calcium polysulfide). […] This may be due to lower water saturation in the 2016 tests compared to the saturation in 2015 tests, which was near 100%.
# Each treatment listed in Table 1 was replicated 4 times. Verticillium levels in soil were assessed by dry incubation on semi selective media (NP-10) method. Soil collected from a Romaine lettuce field in Salinas, Calif. was used for the investigation. […]
# Experimental Setup: Seven treatments were installed in 4 replicates each. […] The equivalent of gal/acre was calculated on the assumption that on acre of soil has an average weight of 3,625,895 lbs. […] Afterwards, soil was split between the two laboratories and were assessed according to the method described.
# Verticillium levels in soil were assessed by dry incubation on semi selective media (NP-10). […]
# The quantity of Verticillium in soil was assessed by dry soil plating on NP-10 semi-selective medium. […] After that, remaining soil was gently washed off the plates and the number of Verticillium microsclerotia colonies were counted on each plate under a microscope. The number of microsclerotia colonies is used as a standard method to quantify Verticillium in soil and was extrapolated for 1 g soil.
# Results were analyzed in a one-way ANOVA (P=0.05) and a Fisher LSD Post-Hoc test. […]
# Verticillium assessments were performed parallel in two separate laboratories. […] The quantity of Verticillium in soil was assessed by dry soil plating on NP-10 semi-selective medium. […]
structure (smiles),measurement,setting,value
"CNC(=S)S [Metam, sodium methyldithiocarbamate]",Verticillium dahliae population,Verticillium dahliae,3 ms per gram of soil
same,reduction of fungal growth of soilborne fungi,soilborne fungi,~100%
same,"Microsclerotia (Verticillium) per gram of soil, ms/g, 2016",Verticillium,6.5 ms/g

# — US11039618B2, “Metam salts and polysulfide soil treatment” (Tessenderlo Kerley, Inc, priority 2016, dated 2021)
